Source: PubChem BioAssay AID256 (DTP/NCI, 2004)
Where “and” joins values, the source holds several entries; their conditions need not be identical. Equal values may be shown once. Toxic doses and inconclusive results are not listed. Rule for the calls: active = survival T/C of 150% or more; inactive = T/C below 125% in these data.

System: CD2F1 mice, L1210 leukemia ip, survival T/C
Assay: NCI In Vivo Anticancer Drug Screen. Data for tumor model L1210 Leukemia (intraperitoneal) in CD2F1 (CDF1) mice
Conditions: higher = longer survival
Procedure, shortened: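 Antitumor effect is scored in animals hosting a serially transplanted tumor. Values compare compound-dosed animals against vehicle-only controls as a simple quotient.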

[1] = endpoint: mean survival time, dose: 100.0 mg/kg/injection, schedule: Q04DX002 (ip), vehicle: saline with Tween-80
[2] = endpoint: mean survival time, dose: 400.0 mg/kg/injection, schedule: Q04DX002 (ip), vehicle: saline with Tween-80
[3] = endpoint: mean survival time, dose: 100.0 mg/kg/injection, schedule: Q04DX003 (ip), vehicle: saline
[4] = endpoint: mean survival time, dose: 50.0 mg/kg/injection, schedule: Q01DX009 (ip), vehicle: saline with Tween-80
[5] = endpoint: mean survival time, dose: 100.0 mg/kg/injection, schedule: Q01DX009 (ip), vehicle: saline with Tween-80
[6] = endpoint: mean survival time, dose: 200.0 mg/kg/injection, schedule: Q01DX009 (ip), vehicle: saline with Tween-80
[7] = endpoint: mean survival time, dose: 100.0 mg/kg/injection, schedule: Q01DX001 (ip), vehicle: saline with Tween-80
[8] = endpoint: mean survival time, dose: 200.0 mg/kg/injection, schedule: Q01DX001 (ip), vehicle: saline with Tween-80
[9] = endpoint: mean survival time, dose: 200.0 mg/kg/injection, schedule: Q04DX002 (ip), vehicle: saline with Tween-80
[10] = endpoint: mean survival time, dose: 100.0 mg/kg/injection, schedule: Q01DX009 (ip), vehicle: saline
[11] = endpoint: mean survival time, dose: 100.0 mg/kg/injection, schedule: Q04DX003 (ip), vehicle: saline with Tween-80
[12] = endpoint: mean survival time, dose: 200.0 mg/kg/injection, schedule: Q04DX003 (ip), vehicle: saline with Tween-80
[13] = endpoint: mean survival time, dose: 400.0 mg/kg/injection, schedule: Q04DX003 (ip), vehicle: saline with Tween-80

Measured: T/C

NC(=O)OCCc1c2ccccc2nc2ccccc12
inactive: endpoint: mean survival time, dose: 25.0 mg/kg/injection, schedule: Q04DX002 (ip), vehicle: other 96 % of control | endpoint: mean survival time, dose: 50.0 mg/kg/injection, schedule: Q04DX002 (ip), vehicle: other 93 % of control | endpoint: mean survival time, dose: 100.0 mg/kg/injection, schedule: Q04DX002 (ip), vehicle: other 93 % of control | [1] 105 % of control | [2] 105 % of control

CN(C)/C=N/N1C(=O)CSC1=S
inactive: endpoint: mean survival time, dose: 25.0 mg/kg/injection, schedule: Q04DX003 (ip), vehicle: saline 107 % of control | endpoint: mean survival time, dose: 50.0 mg/kg/injection, schedule: Q04DX003 (ip), vehicle: saline 103 % of control | [3] 101 % of control and 103 % of control

CC(=O)c1cno[n+]1[O-]
inactive: endpoint: mean survival time, dose: 5.0 mg/kg/injection, schedule: Q01DX009 (ip), vehicle: saline with Tween-80 97 % of control | endpoint: mean survival time, dose: 10.0 mg/kg/injection, schedule: Q01DX009 (ip), vehicle: saline with Tween-80 113 % of control

CN(C)C(c1ccccc1)P(=O)(O)O (stereo not drawn)
inactive: [3] 98 % of control | endpoint: mean survival time, dose: 200.0 mg/kg/injection, schedule: Q04DX003 (ip), vehicle: saline 101 % of control | endpoint: mean survival time, dose: 400.0 mg/kg/injection, schedule: Q04DX003 (ip), vehicle: saline 98 % of control

COc1cc2c(cc1OC)[C@@H]1C(=O)c3ccc4c(c3O[C@@H]1CO2)C[C@H](C(C)C)O4
inactive: endpoint: median survival time, dose: 6.25 mg/kg/injection, schedule: Q01DX005 (ip), vehicle: Klucel (hydroxypropylcellulose) (HPC) 107 % of control | endpoint: median survival time, dose: 12.5 mg/kg/injection, schedule: Q01DX005 (ip), vehicle: Klucel (hydroxypropylcellulose) (HPC) 115 % of control | endpoint: median survival time, dose: 18.0 mg/kg/injection, schedule: Q01DX005 (ip), vehicle: Klucel (hydroxypropylcellulose) (HPC) 113 % of control | endpoint: median survival time, dose: 25.0 mg/kg/injection, schedule: Q01DX005 (ip), vehicle: Klucel (hydroxypropylcellulose) (HPC) 115 % of control | endpoint: median survival time, dose: 30.0 mg/kg/injection, schedule: Q01DX005 (ip), vehicle: Klucel (hydroxypropylcellulose) (HPC) 118 % of control | endpoint: median survival time, dose: 100.0 mg/kg/injection, schedule: Q01DX005 (ip), vehicle: Klucel (hydroxypropylcellulose) (HPC) 100 % of control

CCN(CC)CCCNc1c2ccc(Cl)cc2nc2ccc(OC)nc12
inactive: [4] 109 % of control | [5] 97 % of control | [6] 114 % of control

O=C(O)C1=CC=C(c2ccccc2)C(=O)C1
inactive: endpoint: mean survival time, dose: 12.5 mg/kg/injection, schedule: Q01DX009 (ip), vehicle: saline with Tween-80 100 % of control | endpoint: mean survival time, dose: 25.0 mg/kg/injection, schedule: Q01DX009 (ip), vehicle: saline with Tween-80 98 % of control | [4] 88 % of control and 90 % of control | [7] 97 % of control | [8] 93 % of control

CCNc1ncc2ccccc2c1-c1ccc(NCCN(CCCl)CCCl)cc1
inactive: endpoint: mean survival time, dose: 25.0 mg/kg/injection, schedule: Q04DX003 (ip), vehicle: water 98 % of control | endpoint: mean survival time, dose: 50.0 mg/kg/injection, schedule: Q04DX003 (ip), vehicle: water 100 % of control | endpoint: mean survival time, dose: 100.0 mg/kg/injection, schedule: Q04DX003 (ip), vehicle: water 90 % of control

O=[N+]([O-])c1cccc(S(=O)(=O)N2CCCCC2)c1
inactive: endpoint: mean survival time, dose: 50.0 mg/kg/injection, schedule: Q04DX002 (ip), vehicle: saline with Tween-80 95 % of control | [1] 87 % of control | [9] 95 % of control | [2] 91 % of control

CNC(=S)NCc1ccc(C(=O)NC(C)C)cc1
inactive: endpoint: mean survival time, dose: 50.0 mg/kg/injection, schedule: Q01DX009 (ip), vehicle: other 97 % of control | endpoint: mean survival time, dose: 100.0 mg/kg/injection, schedule: Q01DX009 (ip), vehicle: other 95 % of control | endpoint: mean survival time, dose: 200.0 mg/kg/injection, schedule: Q01DX009 (ip), vehicle: other 100 % of control | endpoint: mean survival time, dose: 400.0 mg/kg/injection, schedule: Q01DX009 (ip), vehicle: other 91 % of control

CC(=O)OC1CCC2C3CCC4(C)C(C(C)CCCC(C)C)CCC4C3CC(C)(O)C2C1 (stereo not drawn)
inactive: endpoint: mean survival time, dose: 100.0 mg/kg/injection, schedule: Q01DX001 (sc), vehicle: steriod suspending solution 101 % of control | endpoint: mean survival time, dose: 200.0 mg/kg/injection, schedule: Q01DX001 (sc), vehicle: steriod suspending solution 101 % of control | endpoint: mean survival time, dose: 400.0 mg/kg/injection, schedule: Q01DX001 (sc), vehicle: steriod suspending solution 101 % of control

O=C1CC(=O)NC(=S)N1
inactive: [10] 95 % of control | endpoint: mean survival time, dose: 200.0 mg/kg/injection, schedule: Q01DX009 (ip), vehicle: saline 93 % of control

Cc1ccc(C)c(C(O)C(=O)O)c1 (stereo not drawn)
inactive: endpoint: mean survival time, dose: 100.0 mg/kg/injection, schedule: Q04DX002 (ip), vehicle: Klucel (hydroxypropylcellulose) (HPC) 94 % of control | endpoint: mean survival time, dose: 200.0 mg/kg/injection, schedule: Q04DX002 (ip), vehicle: Klucel (hydroxypropylcellulose) (HPC) 105 % of control | endpoint: mean survival time, dose: 400.0 mg/kg/injection, schedule: Q04DX002 (ip), vehicle: Klucel (hydroxypropylcellulose) (HPC) 98 % of control

NC(=O)CC(NC(=O)OCc1ccccc1)C(=O)O (stereo not drawn)
inactive: [11] 95 % of control | [12] 101 % of control | [13] 93 % of control

OCCOc1ccc(Cl)cc1Cl
inactive: endpoint: mean survival time, dose: 75.0 mg/kg/injection, schedule: Q04DX003 (ip), vehicle: saline with Tween-80 98 % of control | endpoint: mean survival time, dose: 150.0 mg/kg/injection, schedule: Q04DX003 (ip), vehicle: saline with Tween-80 97 % of control | endpoint: mean survival time, dose: 300.0 mg/kg/injection, schedule: Q04DX003 (ip), vehicle: saline with Tween-80 98 % of control

CC(/C=N/N(C)C)=N\N(C)C
inactive: endpoint: mean survival time, dose: 50.0 mg/kg/injection, schedule: Q01DX009 (ip), vehicle: saline 108 % of control | [10] 96 % of control

CCCc1nc2[nH]cnc(=S)c2[nH]1
inactive: endpoint: mean survival time, dose: 12.5 mg/kg/injection, schedule: Q01DX005 (ip), vehicle: other 110 % of control | endpoint: mean survival time, dose: 25.0 mg/kg/injection, schedule: Q01DX005 (ip), vehicle: other 108 % of control | endpoint: mean survival time, dose: 50.0 mg/kg/injection, schedule: Q01DX005 (ip), vehicle: other 96 % of control

Clc1ccc(C2SC=Cc3ccccc32)cc1 (stereo not drawn)
inactive: endpoint: median survival time, dose: 25.0 mg/kg/injection, schedule: Q01DX009 (ip), vehicle: Klucel (hydroxypropylcellulose) (HPC) 110 % of control | endpoint: median survival time, dose: 50.0 mg/kg/injection, schedule: Q01DX009 (ip), vehicle: Klucel (hydroxypropylcellulose) (HPC) 104 % of control | endpoint: median survival time, dose: 100.0 mg/kg/injection, schedule: Q01DX009 (ip), vehicle: Klucel (hydroxypropylcellulose) (HPC) 109 % of control | endpoint: median survival time, dose: 200.0 mg/kg/injection, schedule: Q01DX009 (ip), vehicle: Klucel (hydroxypropylcellulose) (HPC) 104 % of control

C=C=CCCCCCCCC
inactive: [11] 102 % of control | [12] 98 % of control | [13] 105 % of control

CC(=O)Oc1cc([N+](=O)[O-])ccc1C(=O)O
inactive: [5] 102 % of control | [6] 102 % of control

O=[N+]([O-])c1ccc(CSc2ncnc3c2ncn3C2OC(CO)C(O)C2O)cc1 (stereo not drawn)
inactive: endpoint: median survival time, dose: 0.1 mg/kg/injection, schedule: Q01DX009 (ip), vehicle: saline 100 % of control | endpoint: median survival time, dose: 1.0 mg/kg/injection, schedule: Q01DX009 (ip), vehicle: saline 105 % of control | endpoint: median survival time, dose: 10.0 mg/kg/injection, schedule: Q01DX009 (ip), vehicle: saline 107 % of control

CN(Cc1ccccc1)/C(N)=N/N
inactive: endpoint: mean survival time, dose: 75.0 mg/kg/injection, schedule: Q01DX001 (ip), vehicle: saline 102 % of control | endpoint: mean survival time, dose: 150.0 mg/kg/injection, schedule: Q01DX001 (ip), vehicle: saline 107 % of control

O=C1C=CC(=O)N1c1ccccc1Cl (tested in a mixture with another compound)
inactive: [5] 95 % of control | [6] 96 % of control | endpoint: mean survival time, dose: 400.0 mg/kg/injection, schedule: Q01DX009 (ip), vehicle: saline with Tween-80 98 % of control

O=C(O)Cc1ccc(O)cc1
inactive: [7] 101 % of control | [8] 101 % of control | endpoint: mean survival time, dose: 400.0 mg/kg/injection, schedule: Q01DX001 (ip), vehicle: saline with Tween-80 108 % of control

CC1(C)COC(CC2(O)CCCCCC2)=N1
inactive: [1] 101 % of control | [11] 95 % of control | [9] 96 % of control | [12] 88 % of control | [2] 101 % of control | [13] 93 % of control
